Results: patent publication US8835403B2, “Algin oligosaccharides and the derivatives thereof as well as the manufacture and the use of the same” (priority 2004, dated 2014)

Tested on: diabetic mice induced by STZ
Test: Blood glucose of diabetic mice induced by streptozotocin (STZ)
Assay type: in vivo
Conditions: blood on 11th day, STZ 150 mg/kg i.p.
Description: Sixty male NIH mice (weighed 18-22 g) are randomly divided to control, model, 50, 150, 450 mg/kg 6-mer-treated and 5 mg/kg dimethyldiguanide-treated groups. The mice are injected intraperitoneally with 150 mg/kg STZ except control group at the 1st day. Then the mice are given accordingly drugs consecutively for 10 days and eyeballs are picked out to extract blood on the 11th day. The blood is taken to measure the glucose concentration.

With `O=C(O)C1OC(OC2C(C(=O)O)OC(OC3C(C(=O)O)OC(OC4C(C(=O)O)OC(OC5C(C(=O)O)OC(OC6C(C(=O)O)OC(O)C(O)C6O)C(O)C5O)C(O)C4O)C(O)C3O)C(O)C2O)C(O)C(O)C1O` (stereo not drawn) [6-mer, mannuronic hexasaccharide] as the compound, how does the “Blood glucose concentration” value (50 mg/kg for 10 days) read?
The value was 219.4 ± 67.8 mg/dL.

What about the “Blood glucose concentration” value (150 mg/kg for 10 days) of the same compound?
Its value is 179.6 ± 69.8 mg/dL.

What about the “Blood glucose concentration” value (450 mg/kg for 10 days) of the same compound?
Its value is 162.5 ± 3 mg/dL.
